Reference: patent US9714247B2, “Multiple kinase pathway inhibitors” (Mannkind Corporation, priority 2012, dated 2017)
Read-outs that look alike come from different tables or passages of the source.

Tests used:
Src = Src (Homo sapiens (Human), UniProt P12931); assay: biochemical
Ramos = assay: CellTiter-Glo proliferation/viability assay; assay type: cell-based, human; settings: Homo sapiens, Ramos, read-out: Ramos EC50
Lyn [1] = target: T1, Lyn (Homo sapiens (Human), UniProt P07948); assay: biochemical
T1 sequence (P07948 whole entry): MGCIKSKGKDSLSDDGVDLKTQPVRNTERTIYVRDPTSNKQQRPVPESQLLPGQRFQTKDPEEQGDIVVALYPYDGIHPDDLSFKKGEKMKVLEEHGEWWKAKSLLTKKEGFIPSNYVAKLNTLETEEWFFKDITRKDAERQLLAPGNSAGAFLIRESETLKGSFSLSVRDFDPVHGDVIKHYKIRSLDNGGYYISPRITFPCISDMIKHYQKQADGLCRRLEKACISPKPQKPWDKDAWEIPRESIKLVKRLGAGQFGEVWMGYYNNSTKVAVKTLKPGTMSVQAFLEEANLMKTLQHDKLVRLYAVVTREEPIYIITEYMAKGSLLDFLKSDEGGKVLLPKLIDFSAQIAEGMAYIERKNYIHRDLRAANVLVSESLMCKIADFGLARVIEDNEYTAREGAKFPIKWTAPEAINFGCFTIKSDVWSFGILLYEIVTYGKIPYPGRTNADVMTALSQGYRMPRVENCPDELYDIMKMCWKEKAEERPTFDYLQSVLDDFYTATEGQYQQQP

DoHH2 = assay: CellTiter-Glo proliferation/viability assay; assay type: cell-based, human; settings: Homo sapiens, DOHH-2; 48 hrs; read-out: DoHH2 EC50
BTK = BTK (Homo sapiens (Human), UniProt Q06187)
BTK, sequence (Q06187 whole entry): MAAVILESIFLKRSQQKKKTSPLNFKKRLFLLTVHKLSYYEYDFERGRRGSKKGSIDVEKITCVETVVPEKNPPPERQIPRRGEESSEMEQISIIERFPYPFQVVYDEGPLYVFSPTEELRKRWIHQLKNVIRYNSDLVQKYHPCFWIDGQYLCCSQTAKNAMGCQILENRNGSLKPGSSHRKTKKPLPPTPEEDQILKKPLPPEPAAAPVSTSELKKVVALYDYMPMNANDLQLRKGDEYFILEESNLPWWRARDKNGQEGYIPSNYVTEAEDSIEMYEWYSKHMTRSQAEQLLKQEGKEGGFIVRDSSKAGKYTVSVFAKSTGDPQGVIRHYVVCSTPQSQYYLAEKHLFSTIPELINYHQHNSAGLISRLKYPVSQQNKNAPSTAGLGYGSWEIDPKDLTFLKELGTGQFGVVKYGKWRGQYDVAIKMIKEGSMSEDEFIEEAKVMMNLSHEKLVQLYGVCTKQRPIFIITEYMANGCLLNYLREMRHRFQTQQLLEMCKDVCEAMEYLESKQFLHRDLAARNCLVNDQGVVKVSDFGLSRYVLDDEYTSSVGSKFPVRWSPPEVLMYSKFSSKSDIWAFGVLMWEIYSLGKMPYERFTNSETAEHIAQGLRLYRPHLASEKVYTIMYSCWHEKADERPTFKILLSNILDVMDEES

Lyn [2] = target: T1, Lyn; settings: read-out: Lyn IC50

Src, sequence (P12931 whole entry, looked up): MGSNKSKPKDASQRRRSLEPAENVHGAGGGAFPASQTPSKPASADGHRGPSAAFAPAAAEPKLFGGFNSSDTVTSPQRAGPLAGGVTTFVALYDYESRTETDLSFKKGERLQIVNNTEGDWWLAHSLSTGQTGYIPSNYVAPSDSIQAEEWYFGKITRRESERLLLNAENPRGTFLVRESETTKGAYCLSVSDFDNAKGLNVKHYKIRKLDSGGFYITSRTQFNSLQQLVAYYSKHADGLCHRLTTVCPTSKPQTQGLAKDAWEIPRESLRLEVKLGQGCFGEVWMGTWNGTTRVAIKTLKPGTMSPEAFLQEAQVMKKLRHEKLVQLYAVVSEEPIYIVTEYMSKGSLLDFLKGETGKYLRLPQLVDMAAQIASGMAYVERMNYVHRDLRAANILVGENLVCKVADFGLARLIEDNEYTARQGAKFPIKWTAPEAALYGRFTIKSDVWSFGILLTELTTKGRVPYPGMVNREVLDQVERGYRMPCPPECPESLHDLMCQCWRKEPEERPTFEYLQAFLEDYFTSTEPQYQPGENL

Row | SMILES | IC50 (Src) | EC50 (Ramos; 48 h) | IC50 (Lyn [1]) | EC50 (DoHH2) | IC50 (BTK) | EC50 (Ramos; 48 hrs) | IC50 (BTK; read-out: BTK IC50) | IC50 (Lyn [2]) | IC50 (Lyn [1]; Lyn IC50)
1 | CCN(CC)CCOc1ccc(Nc2cc3[nH]c(=O)c(C(C)C)cc3cn2)nc1 [Compound 49, 7-(5-(2-(diethylamino)ethoxy)pyridin-2-ylamino)-3-isopropyl-1,6-naphthyridin-2(1H)-one] | 0.1 to 1 µM | > 10 µM | 0.1 to 1 µM | 1 to 10 µM | 1 to 5 µM | – | – | – | –
2 | CCN(CC)CCOc1ccc(Nc2cc3c(cn2)cc(C(C)C)c(=O)n3CC)nc1 [Compound 50, 7-[5-(2-Diethylamino-ethoxy)-pyridin-2-ylamino]-1-ethyl-3-isopropyl-1H-[1,6]naphthyridin-2-one] | 0.1 to 1 µM | – | 0.1 to 1 µM | 1 to 10 µM | – | > 10 µM | – | – | –
3 | CCn1c(=O)c(-c2ccccc2)cc2cnc(Nc3ccc(OC)cn3)cc21 [Compound 51, 1-Ethyl-7-(5-methoxy-pyridin-2-ylamino)-3-phenyl-1H-[1,6]naphthayridin-2-one] | 0.1 to 1 µM | – | 0.1 to 1 µM | 1 to 10 µM | 1 to 5 µM | > 10 µM | – | – | –
4 | CCn1c(=O)c(C#CCO)cc2cnc(Nc3ccc(C)cn3)cc21 [Compound 53] | 0.1 to 1 µM | – | 1 to 5 µM | 1 to 10 µM | – | 1 to 10 µM | > 5 µM | – | –
5 | CCn1c(=O)c(C#CC(C)(C)O)cc2cnc(Nc3ccc(C)cn3)cc21 [Compound 54] | 0.1 to 1 µM | – | 0.1 to 1 µM | 1 to 10 µM | 1 to 5 µM | > 10 µM | – | – | –
6 | CCN(CC)CCOc1ccc(Nc2cc3c(cn2)cc(C(C)C)c(=O)n3CCOC)nc1 [Compound 57, 7-[5-(2-Diethylamino-ethoxy)-pyridin-2-ylamino]-3-isopropyl-1-(2-methoxy-ethyl)-1H-[1,6]naphthyridin-2-one] | 0.1 to 1 µM | – | – | 1 to 10 µM | 1 to 5 µM | > 10 µM | – | > 5 µM | –
7 | CCN(CC)CCOc1ccc(Nc2cc3c(cn2)cc(-c2ccccc2)c(=O)n3C2CCN(C)C2)nc1 (stereo not shown) [Compound 58, 7-((5-(2-(diethylamino)ethoxy)pyridin-2-yl)amino)-1-(1-methylpyrrolidin-3-yl)-3-phenyl-1,6-naphthyridin-2(1H)-one] | 0.1 to 1 µM | > 10 µM | – | 1 to 10 µM | 1 to 5 µM | – | – | – | 0.1 to 1 µM
8 | CCn1c(=O)c(-c2ccccc2)cc2cnc(Nc3ccncn3)cc21 [Compound 60, 1-Ethyl-3-phenyl-7-(pyrimidin-4-ylamino)-1H-[1,6]naphthyridin-2-one] | 0.1 to 1 µM | > 10 µM | 1 to 5 µM | 1 to 10 µM | 0.1 to 1 µM | – | – | – | –
9 | CCn1c(=O)c(-c2ccccc2)cc2cnc(Nc3ccc(OC)nn3)cc21 [Compound 61, 1-Ethyl-7-(6-methoxy-pyridazin-3-ylamino)-3-phenyl-1H-[1,6]naphthyridin-2-one] | 0.1 to 1 µM | – | 1 to 5 µM | < 1 µM | 1 to 5 µM | 1 to 10 µM | – | – | –
10 | CCn1c(=O)c(-c2ccccc2)cc2cnc(Nc3ccnc(OC)n3)cc21 [Compound 62, 1-Ethyl-7-(2-methoxy-pyrimidin-4-ylamino)-3-phenyl-1H-[1,6]naphthyridin-2-one] | 0.1 to 1 µM | 1 to 10 µM | – | < 1 µM | 1 to 5 µM | – | – | – | 1 to 5 µM
11 | CCn1c(=O)c(-c2ccccc2)cc2cnc(Nc3ccc(N(C)C)cn3)cc21 [Compound 64, 7-(5-Dimethylamino-pyridin-2-ylamino)-1-ethyl-3-phenyl-1H-[1,6]naphthyridin-2-one] | 0.1 to 1 µM | – | 0.1 to 1 µM | < 1 µM | 1 to 5 µM | > 10 µM | – | – | –
12 | CN1CCC(n2c(=O)c(-c3c(F)cccc3F)cc3cnc(Nc4ccc(F)cn4)cc32)C1 (stereo not shown) [Compound 85, 3-(2,6-difluorophenyl)-7-((5-fluoropyridin-2-yl)amino)-1-(1-methylpyrrolidin-3-yl)-1,6-naphthyridin-2(1H)-one] | 1 to 5 µM | > 10 µM | – | 1 to 10 µM | – | – | – | – | 1 to 5 µM
13 | COCCn1c(=O)c(-c2c(F)cccc2F)cc2cnc(Nc3ccc(F)cn3)cc21 [Compound 126, 3-(2,6-difluorophenyl)-7-((5-fluoropyridin-2-yl)amino)-1-(2-methoxyethyl)-1,6-naphthyridin-2(1H)-one] | 1 to 5 µM | > 10 µM | – | 1 to 10 µM | 0.1 to 1 µM | – | – | > 5 µM | –
14 | O=c1c(-c2c(F)cccc2F)cc2cnc(Nc3ccc(F)cn3)cc2n1[C@@H]1CCNC1 [Compound 151, (R)-3-(2,6-difluorophenyl)-7-((5-fluoropyridin-2-yl)amino)-1-(pyrrolidin-3-yl)-1,6-naphthyridin-2(1H)-one] | 0.1 to 1 µM | – | 0.1 to 1 µM | 1 to 10 µM | – | > 10 µM | – | – | –
